According to the supplement of paper PMC12463676, “Small-molecule dissolution of stress granules by redox modulation benefits ALS models” (Nature Chemical Biology, 2025):

Legend:
lipoamide = compound: NC(=O)CCCCC1CCSS1 [lipoamide]; assay: thermal stability z-score vs DMSO; higher = more thermally stabilized by treatment; details: HeLa, lipoamide concentration 100 µM
Description: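 Cellular thermal proteome profiling in HeLa cells. Cells were treated with 100 µM lipoamide for 1 h, with or without 1 mM arsenate for a further 1 h, then heated to ten temperatures (37-66.3 °C), and soluble protein was quantified by TMT mass spectrometry relative to 0.1% DMSO controls. The thermal stability score (sum of log2 fold changes minus the abundance score) was transformed to a z-score; mean of n = 3 experiments.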

potassium arsenate = compound: O=[As]([O-])(O)O.[K+] [potassium arsenate]; assay: as above; details: HeLa; arsenate concentration 1 mM
Description: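 Cellular thermal proteome profiling in HeLa cells treated with 1 mM arsenate for 1 h (DMSO pretreatment), heated to ten temperatures (37-66.3 °C). Soluble protein was quantified by TMT mass spectrometry relative to DMSO controls; the thermal stability score was transformed to a z-score; mean of n = 3 experiments.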

[1] = arsenate co-treatment: 1 mM arsenate 1 h
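Note: each temperature applied for 3 min, abundance score taken as mean log2 fold change at the two lowest temperatures, z-score obtained by mean subtraction and division by SD.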

UniProt P68402, sequence (P68402 whole entry): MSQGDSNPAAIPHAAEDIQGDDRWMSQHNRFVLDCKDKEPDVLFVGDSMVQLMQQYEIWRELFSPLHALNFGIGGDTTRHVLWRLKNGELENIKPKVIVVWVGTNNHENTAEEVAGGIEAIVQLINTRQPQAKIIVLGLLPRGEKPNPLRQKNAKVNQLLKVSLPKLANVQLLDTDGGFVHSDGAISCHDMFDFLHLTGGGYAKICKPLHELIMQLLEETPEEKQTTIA
UniProt Q9NXE4, sequence (Q9NXE4 whole entry): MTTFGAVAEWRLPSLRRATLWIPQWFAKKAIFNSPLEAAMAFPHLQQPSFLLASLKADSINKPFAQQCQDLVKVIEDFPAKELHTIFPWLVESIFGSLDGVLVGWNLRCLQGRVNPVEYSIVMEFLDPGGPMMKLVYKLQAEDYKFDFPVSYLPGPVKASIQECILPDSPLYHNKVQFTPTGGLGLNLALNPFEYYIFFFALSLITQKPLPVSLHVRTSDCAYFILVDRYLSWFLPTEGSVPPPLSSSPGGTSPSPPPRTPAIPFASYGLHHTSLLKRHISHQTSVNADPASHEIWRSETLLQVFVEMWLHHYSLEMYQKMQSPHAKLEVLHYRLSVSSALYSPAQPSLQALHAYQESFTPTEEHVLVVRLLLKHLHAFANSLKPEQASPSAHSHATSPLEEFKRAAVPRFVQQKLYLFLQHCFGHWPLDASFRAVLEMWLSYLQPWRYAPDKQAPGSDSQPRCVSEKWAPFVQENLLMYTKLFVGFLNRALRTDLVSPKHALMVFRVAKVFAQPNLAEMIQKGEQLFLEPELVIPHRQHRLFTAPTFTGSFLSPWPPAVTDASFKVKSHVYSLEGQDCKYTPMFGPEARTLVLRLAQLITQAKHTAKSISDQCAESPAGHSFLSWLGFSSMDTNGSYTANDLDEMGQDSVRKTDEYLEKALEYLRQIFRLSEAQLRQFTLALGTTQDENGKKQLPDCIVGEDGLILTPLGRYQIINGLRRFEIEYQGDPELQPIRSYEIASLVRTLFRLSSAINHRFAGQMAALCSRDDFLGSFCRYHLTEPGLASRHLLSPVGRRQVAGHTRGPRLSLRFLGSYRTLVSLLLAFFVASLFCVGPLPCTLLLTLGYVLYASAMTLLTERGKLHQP
UniProt Q5VZ89, sequence (Q5VZ89 whole entry): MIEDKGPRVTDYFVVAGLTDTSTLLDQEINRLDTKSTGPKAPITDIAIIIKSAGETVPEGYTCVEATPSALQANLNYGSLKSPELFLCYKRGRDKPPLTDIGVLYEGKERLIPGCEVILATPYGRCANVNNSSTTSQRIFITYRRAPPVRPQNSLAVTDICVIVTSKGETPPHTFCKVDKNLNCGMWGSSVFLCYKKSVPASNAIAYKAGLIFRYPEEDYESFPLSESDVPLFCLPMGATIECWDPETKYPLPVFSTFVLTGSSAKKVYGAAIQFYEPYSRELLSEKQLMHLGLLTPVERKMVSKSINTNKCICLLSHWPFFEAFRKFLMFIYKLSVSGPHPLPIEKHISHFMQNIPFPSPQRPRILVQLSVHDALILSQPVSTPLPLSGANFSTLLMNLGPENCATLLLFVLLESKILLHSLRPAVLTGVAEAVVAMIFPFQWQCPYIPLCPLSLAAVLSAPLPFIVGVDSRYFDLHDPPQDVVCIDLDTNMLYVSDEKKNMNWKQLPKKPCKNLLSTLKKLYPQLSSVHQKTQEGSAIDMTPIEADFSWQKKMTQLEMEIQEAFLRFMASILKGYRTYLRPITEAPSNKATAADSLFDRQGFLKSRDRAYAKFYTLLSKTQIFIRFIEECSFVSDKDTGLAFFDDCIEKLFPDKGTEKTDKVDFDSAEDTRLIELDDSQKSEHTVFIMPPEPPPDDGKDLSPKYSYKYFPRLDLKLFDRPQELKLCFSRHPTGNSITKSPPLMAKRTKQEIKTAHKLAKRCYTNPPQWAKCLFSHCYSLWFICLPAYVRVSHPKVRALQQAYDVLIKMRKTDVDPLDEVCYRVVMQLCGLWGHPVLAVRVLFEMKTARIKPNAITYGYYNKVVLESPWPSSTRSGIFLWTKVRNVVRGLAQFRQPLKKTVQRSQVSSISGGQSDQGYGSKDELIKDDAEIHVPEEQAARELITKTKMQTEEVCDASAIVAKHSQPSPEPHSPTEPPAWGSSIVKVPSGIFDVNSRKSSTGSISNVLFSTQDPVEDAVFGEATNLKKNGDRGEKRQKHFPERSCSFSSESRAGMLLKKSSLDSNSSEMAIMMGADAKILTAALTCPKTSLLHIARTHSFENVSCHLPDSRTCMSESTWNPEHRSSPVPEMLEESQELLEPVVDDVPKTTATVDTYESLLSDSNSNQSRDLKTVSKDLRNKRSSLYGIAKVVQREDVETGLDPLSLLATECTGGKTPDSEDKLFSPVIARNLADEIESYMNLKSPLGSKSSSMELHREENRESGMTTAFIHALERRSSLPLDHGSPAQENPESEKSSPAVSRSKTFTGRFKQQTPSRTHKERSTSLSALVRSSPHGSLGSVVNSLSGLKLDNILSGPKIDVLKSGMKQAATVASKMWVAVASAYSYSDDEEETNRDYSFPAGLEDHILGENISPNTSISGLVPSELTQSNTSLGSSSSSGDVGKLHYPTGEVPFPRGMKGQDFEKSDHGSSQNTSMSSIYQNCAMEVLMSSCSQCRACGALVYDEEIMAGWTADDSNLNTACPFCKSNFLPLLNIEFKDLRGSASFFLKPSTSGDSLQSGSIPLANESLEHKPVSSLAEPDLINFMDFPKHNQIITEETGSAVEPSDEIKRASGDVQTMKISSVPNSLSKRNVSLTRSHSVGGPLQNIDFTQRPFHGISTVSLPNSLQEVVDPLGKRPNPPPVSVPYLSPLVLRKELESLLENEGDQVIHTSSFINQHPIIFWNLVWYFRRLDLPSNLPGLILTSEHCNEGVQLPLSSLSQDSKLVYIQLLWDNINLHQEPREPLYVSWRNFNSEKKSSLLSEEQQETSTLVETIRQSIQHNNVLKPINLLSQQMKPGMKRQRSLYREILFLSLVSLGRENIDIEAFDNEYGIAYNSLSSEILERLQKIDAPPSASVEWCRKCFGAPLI
UniProt Q969F1, sequence (Q969F1 whole entry): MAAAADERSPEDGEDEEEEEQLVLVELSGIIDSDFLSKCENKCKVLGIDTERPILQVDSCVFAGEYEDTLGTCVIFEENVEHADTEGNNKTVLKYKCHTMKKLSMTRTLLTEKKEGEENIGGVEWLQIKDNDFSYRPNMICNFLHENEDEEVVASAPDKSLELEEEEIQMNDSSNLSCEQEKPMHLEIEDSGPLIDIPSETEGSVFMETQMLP
UniProt Q15365, sequence (Q15365 whole entry): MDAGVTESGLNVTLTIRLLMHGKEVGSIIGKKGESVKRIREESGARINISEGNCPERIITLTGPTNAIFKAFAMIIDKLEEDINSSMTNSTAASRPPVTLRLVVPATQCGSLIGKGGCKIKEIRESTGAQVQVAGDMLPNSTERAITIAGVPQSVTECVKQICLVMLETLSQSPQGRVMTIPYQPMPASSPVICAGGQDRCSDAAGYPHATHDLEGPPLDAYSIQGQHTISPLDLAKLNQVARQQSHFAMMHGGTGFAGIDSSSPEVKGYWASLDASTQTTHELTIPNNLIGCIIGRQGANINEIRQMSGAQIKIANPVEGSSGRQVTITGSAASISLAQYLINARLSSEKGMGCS
UniProt P19174, sequence (P19174 whole entry): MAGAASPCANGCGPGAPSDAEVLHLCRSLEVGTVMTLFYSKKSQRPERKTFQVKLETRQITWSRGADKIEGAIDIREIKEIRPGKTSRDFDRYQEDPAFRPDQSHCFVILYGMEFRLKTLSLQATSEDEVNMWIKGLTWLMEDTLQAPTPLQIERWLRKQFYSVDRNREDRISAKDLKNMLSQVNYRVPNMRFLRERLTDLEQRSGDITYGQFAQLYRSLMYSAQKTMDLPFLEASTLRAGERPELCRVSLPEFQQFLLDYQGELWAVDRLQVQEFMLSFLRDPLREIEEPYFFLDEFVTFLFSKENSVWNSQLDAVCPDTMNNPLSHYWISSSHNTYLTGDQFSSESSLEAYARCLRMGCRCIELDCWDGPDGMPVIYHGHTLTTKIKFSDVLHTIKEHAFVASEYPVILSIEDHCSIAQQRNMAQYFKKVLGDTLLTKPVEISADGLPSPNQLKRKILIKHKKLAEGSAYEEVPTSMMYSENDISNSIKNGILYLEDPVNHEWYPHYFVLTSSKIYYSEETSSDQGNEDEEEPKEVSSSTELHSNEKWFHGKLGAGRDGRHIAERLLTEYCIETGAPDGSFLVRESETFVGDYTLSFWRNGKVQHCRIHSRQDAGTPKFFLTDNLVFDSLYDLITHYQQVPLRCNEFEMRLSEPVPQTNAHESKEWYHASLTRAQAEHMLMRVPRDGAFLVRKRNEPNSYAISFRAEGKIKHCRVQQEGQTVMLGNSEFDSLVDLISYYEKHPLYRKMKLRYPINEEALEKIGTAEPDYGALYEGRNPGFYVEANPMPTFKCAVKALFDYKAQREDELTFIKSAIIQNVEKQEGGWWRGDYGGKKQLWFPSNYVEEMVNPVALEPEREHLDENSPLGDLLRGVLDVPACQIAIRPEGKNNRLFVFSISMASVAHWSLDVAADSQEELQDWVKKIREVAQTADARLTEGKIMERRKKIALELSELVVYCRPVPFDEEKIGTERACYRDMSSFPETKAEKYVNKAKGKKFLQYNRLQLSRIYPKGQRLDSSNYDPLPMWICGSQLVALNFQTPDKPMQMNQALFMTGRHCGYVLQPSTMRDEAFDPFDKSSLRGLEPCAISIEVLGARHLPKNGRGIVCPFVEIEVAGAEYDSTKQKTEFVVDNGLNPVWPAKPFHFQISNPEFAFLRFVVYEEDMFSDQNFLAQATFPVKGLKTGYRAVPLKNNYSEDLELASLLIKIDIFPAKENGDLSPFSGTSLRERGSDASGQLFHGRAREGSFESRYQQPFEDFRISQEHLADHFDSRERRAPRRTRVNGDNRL
UniProt O43678, sequence (O43678 whole entry): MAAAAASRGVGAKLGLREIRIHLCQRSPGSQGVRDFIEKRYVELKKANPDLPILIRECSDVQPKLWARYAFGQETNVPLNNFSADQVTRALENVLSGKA

Target	thermal stability z-score (lipoamide; [1])	thermal stability z-score (lipoamide; arsenate co-treatment: none)	thermal stability z-score (potassium arsenate)
HPD (UniProt P32754)	0.25	0.117	1.61
MEMO1 (UniProt Q9Y316)	0.326	0.0877	0.0822
PGK1 (UniProt P00558)	0.239	0.256	-0.469
PLEKHF2 (UniProt Q9H8W4)	-0.1	-0.117	-0.196
LIMD1 (UniProt Q9UGP4)	-1.08	-0.705	-5.26
PPP2CB (UniProt P62714)	0.564	0.167	-0.474
MAP3K2 (UniProt Q9Y2U5)	0.15	-0.461	-0.71
DENND4C (UniProt Q5VZ89)	0.201	0.677	0.337
ATPAF2 (UniProt Q8N5M1)	-0.263	-0.0435	-0.318
FKBP10 (UniProt Q96AY3)	-3.58	-2.95	0.321
NXF1 (UniProt Q9UBU9)	0.0906	0.0765	-0.127
PDS5A (UniProt Q29RF7)	0.543	0.408	-0.428
TSR2 (UniProt Q969E8)	0.33	0.0774	0.317
MED24 (UniProt O75448)	0.0619	-0.0126	-0.0686
VAMP7 (UniProt P51809)	-0.512	-0.444	-0.234
SCO1 (UniProt O75880)	-2.79	-2.65	3.03
SCD (UniProt O00767)	-1.45	-2.34	1.66
MTA3 (UniProt Q9BTC8)	0.106	0.129	-0.13
HDDC3 (UniProt Q8N4P3)	-0.522	-1.05	-0.222
EXOSC9 (UniProt Q06265)	0.0277	-1.24	-1.59
OSBPL11 (UniProt Q9BXB4)	-0.766	-0.267	0.989
PCBP1 (UniProt Q15365)	-0.057	0.0883	-1.31
NIPA2 (UniProt Q8N8Q9)	0.499	0.101	0.36
TOR3A (UniProt Q9H497)	-1.02	-0.712	0.553

Target	thermal stability z-score (lipoamide; [1])	thermal stability z-score (lipoamide; arsenate co-treatment: none)	thermal stability z-score (potassium arsenate)
FLYWCH2 (UniProt Q96CP2)	0.101	0.222	0.0187
PLCG1 (UniProt P19174)	0.538	0.247	0.623
ECI2 (UniProt O75521)	0.0605	-0.724	-0.44
FMR1 (UniProt Q06787)	0.0851	0.195	0.0999
NPTN (UniProt Q9Y639)	0.275	-0.0241	0.798
RAB8B (UniProt Q92930)	0.327	0.127	-0.115
SPTLC1 (UniProt O15269)	-0.481	-0.72	0.833
RXRA (UniProt P19793)	0.08	0.208	-0.255
ANXA11 (UniProt P50995)	3.8	3.23	1.77
HSPE1 (UniProt P61604)	1.5	0.918	0.112
AP3D1 (UniProt O14617)	-0.494	-0.336	0.577
EIF2B1 (UniProt Q14232)	0.317	0.317	0.364
PFDN2 (UniProt Q9UHV9)	0.967	1.21	0.132
SKA1 (UniProt Q96BD8)	-0.047	0.0119	-0.0935
PAM (UniProt P19021)	-1.15	-1.32	-1.17
ATP13A1 (UniProt Q9HD20)	-0.0204	0.186	-0.277
TPX2 (UniProt Q9ULW0)	0.967	0.322	0.448
POLR2E (UniProt P19388)	0.281	0.459	-1.34
ABCE1 (UniProt P61221)	0.0869	0.0991	-0.471
PDXP (UniProt Q96GD0)	0.0465	0.133	-0.658
C18ORF8 (UniProt Q96DM3)	0.827	0.41	-0.638
PAFAH1B2 (UniProt P68402)	0.526	0.289	-0.469
SMPD4 (UniProt Q9NXE4)	0.624	0.149	1.11
HEATR5B (UniProt Q9P2D3)	-1.25	-0.638	-0.105

Target	thermal stability z-score (lipoamide; [1])	thermal stability z-score (lipoamide; arsenate co-treatment: none)	thermal stability z-score (potassium arsenate)
CCDC91 (UniProt Q7Z6B0)	0.136	0.181	1.21
NDUFA2 (UniProt O43678)	-0.29	-0.00199	0.396
SCLY (UniProt Q96I15)	0.111	0.27	-0.415
INF2 (UniProt Q27J81)	-0.674	-0.257	0.0741
LRRFIP1 (UniProt Q32MZ4)	0.409	0.475	0.228
NAB2 (UniProt Q15742)	-0.402	-2.02	1.18
WDR5 (UniProt P61964)	1.18	0.552	0.234
GTF3C6 (UniProt Q969F1)	0.05	-0.0491	-0.175
ZFYVE27 (UniProt Q5T4F4)	-0.0642	-0.19	0.0943
FAM234B (UniProt A2RU67)	-0.257	-0.241	-0.192
SYNJ2 (UniProt O15056)	0.0806	0.0587	-0.0134
TWF1 (UniProt Q12792)	0.503	0.245	-0.412
CADM1 (UniProt Q9BY67)	0.995	0.905	0.376
GDPGP1 (UniProt Q6ZNW5)	-0.332	-0.511	-0.786
DHFR (UniProt P00374)	-0.995	-0.563	0.324
MAP4K5 (UniProt Q9Y4K4)	-0.212	0.00139	0.00285
RAD51AP1 (UniProt Q96B01)	0.0622	-0.213	-0.76
WDR18 (UniProt Q9BV38)	1.38	0.361	0.122
INPP5K (UniProt Q9BT40)	-0.0181	0.225	0.268
CCDC134 (UniProt Q9H6E4)	-2.13	-1.37	-0.0932
ELP6 (UniProt Q0PNE2)	0.56	-0.141	0.998
RASA2 (UniProt Q15283)	-0.0591	-0.273	-0.334
NCOA5 (UniProt Q9HCD5)	1.91	0.857	1.05
